Laboratory results taken from the NIST ThermoML archive (doi:10.1016/j.jct.2018.12.037).

Experiments:
[1] = xn = mol fraction of the nth substance listed; conditions: 100 kPa, Liquid, Vibrating tube method, x1 = 0.52
[2] = refractive index (Na D-line) (dimensionless); xn = mol fraction of the nth substance listed; conditions: 293.15 K; 100 kPa; Liquid; Standard Abbe refractometry; x1 = 0.52

C[C@@H]1CC[C@H](C)O1 [cis-2,5-dimethyltetrahydrofuran] + C[C@@H]1CC[C@@H](C)O1
[1]
Conditions | mass density [kg/m3]
273.15 K | 848.22
283.15 K | 838.53
293.15 K | 828.71
298.15 K | 823.89
303.15 K | 818.91

Conditions | refractive index
[2] | 1.4043
